Source: US20240100121A1, “COMPOSITIONS OF A BETA-HAIRPIN PEPTIDOMIMETIC AND AEROSOL DOSAGE FORMS THEREOF” (priority 2020, published 2024)
≈ marks a conversion by molar mass, not a printed value. Where two headings read alike, the source gives them in different places.

Assays:
[1] = system: Pseudomonas aeruginosa isolates from respiratory samples of people with cystic fibrosis; assay: Planktonic susceptibility (MIC) of CF isolates; format: cell-based
From the text: (§1) To perform biofilm tests with the Calgary device, fifty-three Pseudomonas aeruginosa isolates from respiratory samples of people with cystic fibrosis were selected among the 414 Pseudomonas aeruginosa of the iABC-collection (Ekkelenkamp M B et al., Antimicrob. Agents Chemother. 2019, 64, 1-7). A representative number of isolates from Northern Ireland, Spain, the Netherlands, and Australia were chosen, including different morphotyes: 18 smooth, 11 mucoid, 11 rough, 10 metallic, and 3 small colony variants. As control strains, the PAO (most commonly used strain for research on this ubiquitous and metabolically versatile opportunistic pathogen, Klockgether J et al., Journal of Bacteriology 2010, 192, 1113-1121) and its hypermutator derivative, PAO mutS strains were used (Oliver A et al., Antimicrob. Agents Chemother. 2004, 48, 4226-33).

[2] = system: Pseudomonas aeruginosa isolates from respiratory samples of people with cystic fibrosis growing in biofilms; format: cell-based; conditions: biofilm, Calgary device, CF isolates
From the text: Two types of assays, an open and a closed system, were used to evaluate the in vitro activity on biofilms. The closed or static system based on the Calgary device (Diez-Aguilar M et al., Antimicrob Agents Chemother. 2018, 62, e01650-17, doi: 10.1128/AAC.01650-17, Moskowitz S M et al., J. Clin. Microbiol. 2004, 42, 1915-1922) analyzes biofilm formation in the wells of microtiter plates and is suitable for high-throughput analysis, obtaining pharmacodynamics (PD) parameters, while the open or dynamic system using the BioFlux device (Benoit M R et al., Appl. Environ. Microbiol. 2010, 76, 4136-4142) better resembles the in vivo conditions.
as §1
(§2) This assay was performed as previously described but with minimal variations (Benoit M R et al., Appl. Environ. Microbiol. 2010, 76, 4136-4142) (FIG. 3). Briefly, a 0.5 McFarland culture was transferred to a flat-bottom 96-well microtiter plate (Nalge Nunc International, Rochester, New York, USA). Bacterial biofilm was formed around the pegs of a modified polystyrene microtiter lid. This lid with pegs was immersed into a growth plate and incubated for 20 h at 37° C. After rinsing the pegs 3 times in saline solution they were placed onto the antimicrobial in BBL™ Mueller-Hinton II cation-adjusted broth (MHB) (Becton, Dickinson and Company, Sparks, MD, USA) and incubated for 20 h at 37° C. […] After this incubation, the biofilm was recovered centrifuging (800 RPM/10 min) the peg lid in an antibiotic-free MHB filled-microtiter plate. The minimal biofilm inhibitory concentration (MBIC) was calculated after measuring the optical density (OD) (450 nm) before and after 6-hour incubation. Biofilm growth was defined as a mean OD difference of ≥0.05. […] The minimal biofilm eradication concentration (MBEC) was defined as the lowest concentration that prevents visible growth in the biofilm recovery medium after 18 h of the microtiter plate incubation (Ceri H et al., J. Clin. Microbiol. 1999, 37, 1771; Macià M D et al., Enferm. Infecc. Microbiol. Clin. 2018, 36, 375-381).
MBIC and the MBEC are used to determine the anti-biofilm antibiotic in vitro efficacy. MBIC is the lowest concentration at which there is no time-dependent increase in the mean number of biofilm viable cells comparing an early with a later exposure time, while the MBEC indicates the eradication (partly or completely) of biofilm viable cells (Thieme L et al., Biol. Proced. Online 2019, 21, 1-5).

[3] = system: PA34 (smooth phenotype); assay: microbe, parasite or virus in culture; format: cell-based, Pseudomonas aeruginosa; conditions: PA34
Experimental: (§3) Two CF isolates, PA34 (smooth phenotype) and PA40 (mucoid phenotype), and the 2 reference strains PAO and PAO mutS were tested with the BioFlux device. None of the clinical strains were hypermutators.
(§4) Planktonic and biofilm susceptibility of the strains established in the Calgary device and used in the BioFlux device are described in Table 12.

[4] = system: PA40 (mucoid phenotype); assay: microbe, parasite or virus in culture; format: cell-based, Pseudomonas aeruginosa; conditions: PA40
Experimental: as §3, §4

[5] = system: PAO; assay: microbe, parasite or virus in culture; format: cell-based, Pseudomonas aeruginosa; conditions: PAO
Experimental: as §3, §4

[6] = system: PAO mutS; assay: Planktonic susceptibility (MIC), PAO mutS; format: cell-based, Pseudomonas aeruginosa
Experimental: as §3, §4

[7] = system: PA34 (smooth phenotype); format: cell-based, Pseudomonas aeruginosa; conditions: PA34
Experimental: as §3, §2, §4

[8] = system: PA40 (mucoid phenotype); format: cell-based, Pseudomonas aeruginosa; conditions: PA40
Experimental: as §3, §2, §4

[9] = system: PAO mutS; format: cell-based, Pseudomonas aeruginosa
Experimental: as §3, §2, §4

[10] = system: PAO; format: cell-based, Pseudomonas aeruginosa; conditions: PAO
Experimental: as §3, §2, §4

[11] = system: PAO, PAO mutS, PA40, PA34; assay: Planktonic susceptibility of all strains used in the BioFlux device; format: cell-based, Pseudomonas aeruginosa
Experimental: as §3, §4

[12] = Pseudomonas aeruginosa, read-out: MIC

Row | Molecule | MIC range [1] [µg/mL] | MBEC50 [2] [mg/L] | MBEC90 [2] [mg/L] | MBEC range [2] [mg/L] | MBIC50 [2] [mg/L] | MBIC90 [2] [mg/L] | MBIC range [2] [mg/L] | MBEC [7] [mg/L] | MBIC [7] [mg/L] | MBEC [8] [mg/L] | MBIC [8] [mg/L] | MBEC [9] [mg/L] | MBIC [9] [mg/L] | MBEC [10] [mg/L] | MBIC [10] [mg/L] | other results
1 | NC[C@H]1O[C@H](O[C@H]2[C@H](O)[C@@H](O[C@H]3O[C@H](CO)[C@@H](O)[C@H](N)[C@H]3O)[C@H](N)C[C@@H]2N)[C@H](N)C[C@@H]1O [tobramycin] | ≤0.5 to 256 | 8 | 256 | ≤0.5 to 512 | 2 | 32 | ≤0.5 to 512 | 2 | 2 | 4 | 2 | 32 | 16 | 16 | 2 | MIC50 ([1]; Pseudomonas aeruginosa, read-out: MIC50): 2 µg/mL (≈ 4.28 µM); MIC90 ([1]; Pseudomonas aeruginosa, read-out: MIC90): 16 µg/mL (≈ 34.2 µM); MIC [3, 12]: 0.25 µg/mL (≈ 0.535 µM); MIC [4, 12]: 0.5 µg/mL (≈ 1.07 µM); MIC [5, 12]: 0.5 µg/mL (≈ 1.07 µM); MIC ([6]; Pseudomonas aeruginosa): 2 µg/mL (≈ 4.28 µM); MIC ([11]; Pseudomonas aeruginosa): 2 µg/mL (≈ 4.28 µM)
2 | colistin | ≤0.5 to 16 | 64 | 128 | ≤0.5 to 256 | 8 | 64 | ≤0.5 to 256 | 128 | 32 | 32 | 32 | 256 | 256 | 128 | 64 | MIC50 [1]: 1 µg/mL; MIC90 [1]: 4 µg/mL; MIC [3]: 2 µg/mL; MIC [4]: 0.5 µg/mL; MIC [5]: 1 µg/mL; MIC ([6]; PAO mutS): 1 µg/mL; MIC ([11]; all tested strains susceptible): 2 µg/mL
